Literature values, collected in patent US20250375396A1 (priority 2016, published 2025).
Counter-ions that a name gives are not always drawn.

Settings: for Equilibrium Constant of Acid Amine (pKa(acid amine)): conjugated acid amine

Compound | Equilibrium Constant of Acid Amine (pKa(acid amine)) | pKa
COC(=O)C(c1ccccc1)C1CCCCN1 (stereo not drawn) [Methyl phenidate HCl] | 8.77 | –
CCN(C)C(=O)Oc1cccc([C@H](C)N(C)C)c1 [Rivastigmine HCl] | 8.85 | –
O=C([O-])[O-].[Na+].[Na+] [Sodium carbonate] | – | 10.3
CCCN(CCc1cccs1)[C@H]1CCc2c(O)cccc2C1 [Rotigotine HCl] | 7.90 | –
CCCN(CCC)CCc1cccc2c1CC(=O)N2 [Ropinirole HCl] | 9.68 | –
CCOc1ccccc1OCCN[C@H](C)Cc1ccc(OC)c(S(N)(=O)=O)c1 [Tamsulosin HCl] | 8.37 | –
